Measurements from patent US12428415B2, “Matriptase 2 inhibitors and uses thereof” (Disc Medicine, Inc., priority 2018, dated 2025).
Where two headings read alike, the source gives them in different places.

Target: T1, Human Recombinant Matriptase 2 (Homo sapiens, UniProt Q8IU80)
T1 construct: purchased Enzo Life Sciences (an in-house preparation was also used) ALX-201-752-1
T1 sequence (Q8IU80 1-811): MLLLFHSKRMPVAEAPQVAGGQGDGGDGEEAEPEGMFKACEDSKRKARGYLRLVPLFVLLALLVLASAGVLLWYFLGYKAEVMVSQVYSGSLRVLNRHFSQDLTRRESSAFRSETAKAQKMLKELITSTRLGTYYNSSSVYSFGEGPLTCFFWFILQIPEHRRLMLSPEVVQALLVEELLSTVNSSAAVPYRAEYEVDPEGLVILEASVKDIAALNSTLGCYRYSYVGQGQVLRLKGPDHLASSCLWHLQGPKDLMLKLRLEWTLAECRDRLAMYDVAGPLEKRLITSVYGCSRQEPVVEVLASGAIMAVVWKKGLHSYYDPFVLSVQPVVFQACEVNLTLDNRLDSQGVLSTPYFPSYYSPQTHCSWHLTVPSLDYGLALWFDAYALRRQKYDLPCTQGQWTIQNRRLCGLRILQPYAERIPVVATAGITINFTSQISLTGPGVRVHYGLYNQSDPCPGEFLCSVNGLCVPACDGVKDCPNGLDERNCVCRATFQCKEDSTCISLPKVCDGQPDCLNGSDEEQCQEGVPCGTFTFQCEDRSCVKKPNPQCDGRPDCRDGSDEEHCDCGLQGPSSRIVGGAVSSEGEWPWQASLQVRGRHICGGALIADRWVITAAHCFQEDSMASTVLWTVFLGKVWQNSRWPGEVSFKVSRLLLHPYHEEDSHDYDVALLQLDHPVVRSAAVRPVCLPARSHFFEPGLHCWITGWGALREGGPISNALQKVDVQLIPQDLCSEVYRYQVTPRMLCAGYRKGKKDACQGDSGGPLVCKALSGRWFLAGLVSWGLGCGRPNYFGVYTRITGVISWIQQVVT
Assay: Matriptase 2 fluorescence based inhibition assay, Method B (50 mM TRIS pH 7.5, 150 mM NaCl, 0.01% gelatin)
Format: biochemical
Conditions: read-out: Mar-2 % inhibition at 1 uM
Method in brief: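 Commercial (7 nM) or in-house (15 nM) enzyme preincubated 30 min with compound at 25° C, then 100 μM Boc-Gln-Ala-Arg-AMC added; fluorescence (Ex 360/Em 480 nm) read at 60 min. 1% DMSO final. IC50 from variable-slope sigmoidal fit of % inhibition.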

[1] = 1 uM compound, Assay Used = B (Method B)
[2] = compound at 1 uM, Assay Used: B

Structure (SMILES): NC(=O)c1ccc2cc(C(=O)N[C@H]3CC[C@H](N)CC3)n(-c3cccc4ccccc34)c2c1 [Compound I-417, N2-((1r,4r)-4-aminocyclohexyl)-1-(naphthalen-1-yl)-1H-indole-2,6-dicarboxamide]
- inhibition at 1 µM (1 uM compound, Assay Used = B): 0 to 25%

Structure (SMILES): CO/N=C(\N)c1ccc2cc(C(=O)O)n(Cc3cccc4ccccc34)c2n1 [Compound I-704, (Z)-6-(N′-methoxycarbamimidoyl)-1-(naphthalen-1-ylmethyl)-1H-pyrrolo[2,3-b]pyridine-2-carboxylic Acid]
- inhibition at 1 µM [1]: 0 to 25%

Structure (SMILES): N=C(N)c1ccc2cc(C(=O)O)n(Cc3cc(Oc4ccc(-c5ccccc5)cc4)cc4ccccc34)c2c1 [Compound I-711]
- inhibition at 1 µM [1]: 25 to 50%

Structure (SMILES): N=C(N)c1ccc2cc(C(=O)N[C@H]3CC[C@H](N)CC3)n(-c3cc(CO)c4ccccc4c3)c2c1 [Compound I-681]
- inhibition at 1 µM [1]: 75 to 100%

Structure (SMILES): N=C(N)c1ccc2cc(S(=O)(=O)N(Cc3cccc4ccccc34)[C@H]3CC[C@H](N)CC3)n(Cc3cccc4ccccc34)c2c1 [Compound I-523]
- inhibition at 1 µM (1 uM compound, Assay Used = B): 0 to 25%

Structure (SMILES): Cc1nnc(-c2cc3ccc(C(=N)N)cc3n2Cc2cccc3ccccc23)o1 [Compound I-751, 2-(5-methyl-1,3,4-oxadiazol-2-yl)-1-(naphthalen-1-ylmethyl)-1H-indole-6-carboximidamide]
- inhibition at 1 µM [1]: 50 to 75%

Structure (SMILES): N=C(N)c1ccc2cc(C(=O)NC3CCNC[C@@H]3F)n(Cc3cccc4ccccc34)c2c1 (stereo partly drawn) [Compound I-816]
- inhibition at 1 µM [2]: 75 to 100%

Structure (SMILES): N=C(N)c1ccc2cc(C(=O)N[C@H]3CC[C@H](N)CC3)n(S(=O)(=O)c3ccc4ccccc4c3)c2c1 [Compound I-37]
- inhibition at 1 µM (1 uM, Assay Used B): 0 to 25%

Structure (SMILES): N=C(N)c1ccc2cc(C(=O)N[C@H]3CC[C@H](N)CC3)n(-c3cccc4ccccc34)c2c1 [Compound I-415, N-((1r,4r)-4-aminocyclohexyl)-6-carbamimidoyl-1-(naphthalen-1-yl)-1H-indole-2-carboxamide]
- inhibition at 1 µM (1 uM compound, Assay Used = B): 25 to 50%

Structure (SMILES): N=C(N)c1ccc2cc(C(=O)N[C@H]3CC[C@H](N)CC3)n(Cc3cccc4cc(OCc5ccccc5)ccc34)c2c1 [Compound I-740]
- inhibition at 1 µM [1]: 75 to 100%

Structure (SMILES): N=C(N)c1ccc2cc(C(=O)NC3CCNC(=O)C3)n(Cc3cc(Oc4ncccn4)cc4ccccc34)c2c1 (racemic) [Compound I-560]
- inhibition at 1 µM (1 uM compound, Assay Used = B): 50 to 75%

Structure (SMILES): N=C(N)c1ccc2cc(C(=O)NCCO)n(Cc3cc(Oc4ncccn4)cc4ccccc34)c2c1 [Compound I-582]
- inhibition at 1 µM (1 uM compound, Assay Used = B): 75 to 100%

Structure (SMILES): N=C(N)c1ccc2cc(C(=O)NC3CCCNC3)n(Cc3cccc4ccccc34)c2c1 (stereo not drawn) [Compound I-445]
- inhibition at 1 µM (1 uM compound, Assay Used = B): 75 to 100%

Structure (SMILES): CC(C)(C)OC(=O)N[C@H]1CC[C@H](NC(=O)c2cn(Cc3cccc4ccccc34)c3cc(C(=N)N)ccc23)CC1 [Compound I-518, tert-butyl ((1r,4r)-4-(6-carbamimidoyl-1-(naphthalen-1-ylmethyl)-1H-indole-3-carboxamido)cyclohexyl) carbamate]
- inhibition at 1 µM (1 uM compound, Assay Used = B): 0 to 25%

Structure (SMILES): N=C(N)c1ccc2cc(C(N)=O)n(Cc3cccc4ccccc34)c2c1 [Compound I-437]
- inhibition at 1 µM (1 uM compound, Assay Used = B): 75 to 100%

Structure (SMILES): N=C(N)c1ccc2cc(C(=O)Nc3nnn[nH]3)n(Cc3cc(Oc4ncccn4)cc4ccccc34)c2c1 [Compound I-572]
- inhibition at 1 µM (1 uM compound, Assay Used = B): 50 to 75%

Structure (SMILES): CCOC(=O)c1cc2ccc(C(=N)NC(=O)Oc3ccccc3)cc2n1Cc1cc(Oc2ccsc2)cc2ccccc12 [Compound I-579]
- inhibition at 1 µM: 0 to 25%

Structure (SMILES): N=C(N)c1ccc2cc(C(=O)NC3CCNCC3)n(Cc3cccc4ccccc34)c2c1 [Compound I-418, 6-carbamimidoyl-1-(naphthalen-1-ylmethyl)-N-(piperidin-4-yl)-1H-indole-2-carboxamide]
- inhibition at 1 µM (1 uM compound, Assay Used = B): 75 to 100%

Structure (SMILES): N=C(N)c1ccc2cc(C(=O)NC3CCC(N)CC3)n(Cc3ccc(C(=N)N)c4ccccc34)c2c1 (stereo not drawn) [Compound I-645]
- inhibition at 1 µM [1]: 25 to 50%

Structure (SMILES): N=C(N)c1ccc2cc(-c3nccs3)n(Cc3cccc4ccccc34)c2c1 [Compound I-750, 1-(naphthalen-1-ylmethyl)-2-(thiazol-2-yl)-1H-indole-6-carboximidamide]
- inhibition at 1 µM [1]: 50 to 75%

Structure (SMILES): CC(N)c1ccc2cc(C(=O)N[C@H]3CC[C@H](N)CC3)n(Cc3cccc4ccccc34)c2c1 (stereo partly drawn) [Compound I-580, N-((1r,4r)-4-aminocyclohexyl)-6-(1-aminoethyl)-1-(naphthalen-1-ylmethyl)-1H-indole-2-carboxamide]
- inhibition at 1 µM (1 uM compound, Assay Used = B): 0 to 25%

Structure (SMILES): COc1ccc2cccc(Cn3c(C(=O)N[C@H]4CC[C@H](N)CC4)cc4ccc(C(=N)N)cc43)c2c1 [Compound I-775]
- inhibition at 1 µM [1]: 75 to 100%

Structure (SMILES): COC(=O)c1cc2ccc(C(=N)N)cc2n1Cc1csc2ccccc12 [Compound I-708]
- inhibition at 1 µM [1]: 25 to 50%

Structure (SMILES): CN1CCC(NC(=O)c2cc3ccc(CN)cc3n2Cc2cccc3ccccc23)CC1 [Compound I-535]
- inhibition at 1 µM (1 uM compound, Assay Used = B): 25 to 50%

Structure (SMILES): N=C(N)c1ccc2cc(C(=O)O)n(Cc3cc(OC4CCCCC4)cc4ccccc34)c2c1 [Compound I-682]
- inhibition at 1 µM [1]: 25 to 50%

Structure (SMILES): N=C(N)c1ccc2cc(C(=O)N[C@H]3CC[C@H](NC(=O)NC(N)=O)CC3)n(Cc3cccc4ccccc34)c2c1 [Compound I-734]
- inhibition at 1 µM [1]: 50 to 75%

Structure (SMILES): CC(C)(C)OC(=O)NC(=N)c1ccc2cc(C(=O)NCc3ccc(CO)cc3)n(Cc3cccc4ccccc34)c2c1 [Compound I-421]
- inhibition at 1 µM (1 uM compound, Assay Used = B): 0 to 25%

Structure (SMILES): Cc1c(C(=O)O)n(Cc2cccc3ccccc23)c2cc(C(=N)N)ccc12 [Compound I-638, 6-carbamimidoyl-3-methyl-1-(naphthalen-1-ylmethyl)-1H-indole-2-carboxylic Acid]
- inhibition at 1 µM [1]: 50 to 75%

Structure (SMILES): N=C(N)c1ccc2cc(C(=O)N[C@H]3CC[C@H](N)CC3)n(C[C@H]3CCCc4ccccc43)c2c1 (racemic) [Compound I-612]
- inhibition at 1 µM [1]: 25 to 50%

Structure (SMILES): NCc1ccc2cc(C(=O)NC3CCNCC3)n(Cc3cccc4ccccc34)c2c1 [Compound I-533]
- inhibition at 1 µM (1 uM compound, Assay Used = B): 25 to 50%

Structure (SMILES): CCOC(=O)c1cc2ccc(/C(N)=N/O)cc2n1Cc1cccc2ccccc12 [Compound I-675, Ethyl (Z)-6-(N′-hydroxycarbamimidoyl)-1-(naphthalen-1-ylmethyl)-1H-indole-2-carboxylate]
- inhibition at 1 µM [1]: 0 to 25%

Structure (SMILES): N=C(N)c1ccc2cc(C(=O)NCCS(N)(=O)=O)n(Cc3cc(Oc4ncccn4)cc4ccccc34)c2c1 [Compound I-547]
- inhibition at 1 µM (1 uM compound, Assay Used = B): 75 to 100%

Structure (SMILES): CO/N=C(\N)c1ccc2c(c1)c(Cc1cccc3ccccc13)c(C(=O)O)n2C [Compound I-684]
- inhibition at 1 µM [1]: 0 to 25%

Structure (SMILES): CN1CCC(NC(=O)c2cc3ccc(C(=N)NC(=O)Oc4ccccc4)cc3n2Cc2cc(Oc3ncccn3)cc3ccccc23)CC1 [Compound I-553]
- inhibition at 1 µM: 0 to 25%

Structure (SMILES): N=C(N)c1ccc2cc(C(=O)N[C@H]3CC[C@H](N)CC3)n(Cc3cc(Oc4ccccc4)cc4ccccc34)c2n1 [Compound I-721]
- inhibition at 1 µM [1]: 75 to 100%

Structure (SMILES): COc1ccc2c(Cn3c(C(=O)N[C@H]4CC[C@H](N)CC4)cc4ccc(C(=N)N)cc43)cccc2c1 [Compound I-506]
- inhibition at 1 µM (1 uM compound, Assay Used = B): 75 to 100%

Structure (SMILES): N=C(N)c1ccc2cc(C(=O)N(CCO)C3CCC(N)CC3)n(Cc3cccc4ccccc34)c2c1 (stereo not drawn) [Compound I-453]
- inhibition at 1 µM (1 uM compound, Assay Used = B): 50 to 75%

Structure (SMILES): CS(=O)(=O)N[C@H]1CC[C@H](NC(=O)c2cc3ccc(C(=N)N)cc3n2Cc2cccc3ccccc23)CC1 [Compound I-753]
- inhibition at 1 µM [1]: 50 to 75%

Structure (SMILES): COc1ccc(Cn2c(C(=O)N[C@H]3CC[C@H](N)CC3)cc3ccc(C(=N)N)cc32)c2ccccc12 [Compound I-668]
- inhibition at 1 µM [1]: 75 to 100%

Structure (SMILES): CN(C)CCCOc1ccc2c(Cn3c(C(=O)N[C@H]4CC[C@H](N)CC4)cc4ccc(C(=N)N)cc43)cccc2c1 [Compound I-804, N-((1r,4r)-4-aminocyclohexyl)-6-carbamimidoyl-1-((6-(3-(dimethylamino)propoxy)naphthalen-1-yl)methyl)-1H-indole-2-carboxamide]
- inhibition at 1 µM [2]: 75 to 100%

Structure (SMILES): N=C(N)c1ccc2cc(C(=O)O)n(Cc3cc(Oc4cnccn4)cc4ccccc34)c2c1 [Compound I-625]
- inhibition at 1 µM [1]: 50 to 75%

Structure (SMILES): N=C(N)c1ccc2cc(C(=O)N3CCN(C(=O)CN)CC3)n(Cc3cccc4ccccc34)c2c1 [Compound I-431]
- inhibition at 1 µM (1 uM compound, Assay Used = B): 50 to 75%

Structure (SMILES): N=C(N)c1ccc2cc(-c3nnc([C@H]4CC[C@H](N)CC4)o3)n(Cc3cccc4ccccc34)c2c1 [Compound I-525, 2-(5-((1r,4r)-4-aminocyclohexyl)-1,3,4-oxadiazol-2-yl)-1-(naphthalen-1-ylmethyl)-1H-indole-6-carboximidamide]
- inhibition at 1 µM (1 uM compound, Assay Used = B): 75 to 100%

Structure (SMILES): COC(=O)NCCOC(=O)c1cc2ccc(C(=N)N)cc2n1Cc1cc(Oc2ccccc2)cc2ccccc12 [Compound I-555]
- inhibition at 1 µM (1 uM compound, Assay Used = B): 25 to 50%

Structure (SMILES): CCOC(=O)c1cc(Cn2c(C(=O)N[C@H]3CC[C@H](N)CC3)cc3ccc(C(=N)N)cc32)c2ccccc2c1 [Compound I-812]
- inhibition at 1 µM [2]: 75 to 100%
